Measurements reported in patent US9974782B2, “Phosphodiesterase inhibitors and uses thereof” (THE TRUSTEES OF COLUMBIA UNIVERSITY IN THE CITY OF NEW YORK, priority 2008, dated 2018).
Entries after “also recorded” stand apart in the source; their conditions may differ. Read-outs that look alike come from different tables or passages of the source.

Columns and labels:
[1] = system: CA1 region of hippocampal slices from APP/PS1 and WT mice; assay: Electrophysiological analysis (BST, LTP) of hippocampal slices perfused with inhibitor; format: cell-based, mouse
APP/PS1 mice [2] = assay: Contextual and cued fear conditioning; format: in vivo, mouse; settings: for effect on contextual fear memory in words: APP/PS1 (transgenic) mice
Experimental: Given that sildenafil reversed LTP deficits in 3-month-old APP/PS1, it was then tested whether the inhibitor reversed the cognitive defects in these animals. As reported above sildenafil offers the advantage of crossing the BBB and therefore it can be easily utilized in behavioural experiments. Three-month-old mice were divided into 4 groups: APP/PS1 with sildenafil, APP/PS1 with vehicle, WT with sildenafil and WT with vehicle. Sildenafil and vehicle control solutions were administered i.p. at a concentration of 3 mg/kg. This concentration was chosen based on previous studies showing that these amounts of sildenafil raise hippocampal cGMP levels and improve memory in aged rats^A6 and mice^A7 independent of vascular effects^A6. The effects of acute administration of sildenafil was first examined on fear-conditioning learning, a type of learning that is impaired in several AD mouse models^A14 and depends on hippocampus and amygdala. The hippocampus is indispensable for contextual fear conditioning^A15, a form of associative learning in which mice must associate a neutral stimulus with an aversive one. Mice were trained to associate neutral stimuli with an aversive one. They were placed in a new context (fear conditioning box), exposed to a white noise cue (CS) paired with a mild foot shock (US), and injected with sildenafil immediately after the training. Fear learning was assessed twenty-four hours later by measuring freezing behaviour—the absence of all movement except for that necessitated by breathing—in response to representation of the context or of the auditory cue within a completely different context. No difference was found in the freezing behaviour among the four groups of mice before the training phase (FIG. 2A). Twenty-four hours later, a decrease in the freezing behaviour of vehicle-treated APP/PS1 mice compared with that of vehicle-treated WT littermates in the analysis of the contextual learning was observed (FIG. 2A). […] Fear conditioning, a hippocampus-independent task A^15, was next tested and no difference in freezing among the 4 groups was found, as APP/PS1 mice are known to have a selective hippocampus-dependent impairment in associative learning^A14.
Sildenafil was tested to determine whether a brief course of treatment can provide long term benefits. The PDE5 inhibitor was examined to see if it maintains its protective effect against synaptic dysfunction and memory loss. In these experiments, both APP/PS1 and WT mice of 3 months of age were injected intraperitoneally with 3 mg/kg/day sildenafil for 3 weeks, then the treatment was stopped for 9-12 weeks prior to testing. The mice were next subjected to training for contextual learning. […] There were no differences between the 4 groups in the cued conditioning test.
Three-month-old APP/PS1 and WT mice were separated into 4 groups: APP/PS1 mice treated with vehicle, APP/PS1 mice treated with PDE inhibitor, WT mice treated with vehicle, and WT mice treated with PDE inhibitor. […] In the remaining experiments, sildenafil was injected via i.p. The drug was administered either acutely or for 1 course of 3 week treatment. For assessment of the short-term effects of sildenafil, the drug was given at a concentration of 3 mg/kg immediately after the training. This dose yields concentrations of ˜2.5 μM cGMP in the hippocampus^A53. For assessment of long-term effects, sildenafil was given daily by i.p. injection at a concentration of 3 mg/kg for 3 weeks and then treatment was stopped for 9-12 weeks prior to behavioral testing. Contextual and cued fear conditioning was performed for 3 days. Radial-arm water-maze (RAWM) was performed for 3 weeks. Then, the animals were sacrificed for electrophysiological recordings. To decide the time of administration of sildenafil in the acute experiments, a series of studies was performed in which the inhibitor was injected i.p. at 5 min before the electric shock or at 5 min before the first acquisition trial with the radial arm water maze. […]

APP/PS1 mice [3] = assay: Radial-arm water maze (spatial working memory); format: in vivo, mouse; settings: APP/PS1 (transgenic) mice
From the text: Next, the effect of treatment with sildenafil was examined on spatial working memory, a type of short-term memory that can be studied with the radial-arm water maze test. […] Mice were required to learn and memorize the location of a hidden platform in one of the arms of a maze with respect to spatial cues. […] However, daily injections of sildenafil for 3 weeks immediately after the 4th acquisition trial ameliorated the behavioural performance of APP/PS1 mice (FIG. 2B).
The effects of one course of 3-week treatment with sildenafil on spatial working memory were next tested using the radial-arm water-maze task. There was a difference between the number of errors made by vehicle-treated APP/PS1 and WT mice (FIG. 3B)^A12. Administration of sildenafil for 3 weeks, 9-12 weeks prior to the testing, reduced the gap between the two groups without affecting performance of the WT animals (FIG. 3B).
Three-month-old APP/PS1 and WT mice were separated into 4 groups: APP/PS1 mice treated with vehicle, APP/PS1 mice treated with PDE inhibitor, WT mice treated with vehicle, and WT mice treated with PDE inhibitor. […] In the remaining experiments, sildenafil was injected via i.p. The drug was administered either acutely or for 1 course of 3 week treatment. For assessment of the short-term effects of sildenafil, the drug was given at a concentration of 3 mg/kg immediately after the training. This dose yields concentrations of ˜2.5 μM cGMP in the hippocampus^A53. For assessment of long-term effects, sildenafil was given daily by i.p. injection at a concentration of 3 mg/kg for 3 weeks and then treatment was stopped for 9-12 weeks prior to behavioral testing. Contextual and cued fear conditioning was performed for 3 days. Radial-arm water-maze (RAWM) was performed for 3 weeks. Then, the animals were sacrificed for electrophysiological recordings. To decide the time of administration of sildenafil in the acute experiments, a series of studies was performed in which the inhibitor was injected i.p. at 5 min before the electric shock or at 5 min before the first acquisition trial with the radial arm water maze. […] Thus, all the behavioral experiments on the acute effects of sildenafil reported in the result section were performed with injection after the training.
This is a type of short-term memory that can be studied with the RAWM test^12. Briefly, the RAWM consisted of a white tank (120 cm diameter) filled with water (24-25° C.) and made opaque by the addition of non-toxic white paint. Within the tank walls were positioned so as to produce six arms, radiating from a central area. Spatial cues were presented on the walls of the testing room. At the end of one of the arms was positioned a clear 10 cm submerged (1.5 cm) platform that remained in the same location for every trial in one day, but was moved about randomly from day to day. On each trial the mouse started the task from a different randomly chosen arm. […] Each trial lasted 1 min and errors were counted each time the mouse entered the wrong arm or needed more than 20 sec to reach the platform. After each error the mouse was pulled back to the start arm for that trial. After 4 consecutive acquisition trials, the mouse was placed in its home cage for 30 min, then returned to the maze and administered a 5th retention trial. Testing was considered completed as the WT mice made the same number of errors at the 4th and 5th trial. The scores for each mouse on the last three days of testing were averaged and used for statistical analysis.

[4] = in vivo, cited from earlier work
[5] = system: human Aβ40 and Aβ42 levels; settings: rolipram, earlier study; cited from earlier work
PDE5 = PDE5 (Homo sapiens, UniProt O76074); settings: cited from earlier work
PDE1 = settings: cited from earlier work
PDE6 = settings: cited from earlier work
PDE2 = PDE2 (Homo sapiens, UniProt O00408); settings: cited from earlier work
PDE3 = settings: cited from earlier work
PDE4 = settings: cited from earlier work
[6] = system: isolated rabbit corpus cavernosum; settings: read-out: EC50, relaxant effect; cited from earlier work
[7] = rat, in vivo; cited from earlier work
[8] = WT slices, 120 min after tetanus, sildenafil 50 nM, tadalafil 50 nM, IC354 1 μM
[9] = WT slices, sildenafil or tadalafil 50 nM
[10] = slices of 3-month-old APP/PS1 mice, 120 min after tetanus, 10 min perfusion (sildenafil 50 nM, tadalafil 50 nM, IC354 1 μM)
[11] = 3 month-old WT, sildenafil 3 mg/Kg or tadalafil 1 mg/Kg i.p.

Chain of PDE2 (O00408 whole entry): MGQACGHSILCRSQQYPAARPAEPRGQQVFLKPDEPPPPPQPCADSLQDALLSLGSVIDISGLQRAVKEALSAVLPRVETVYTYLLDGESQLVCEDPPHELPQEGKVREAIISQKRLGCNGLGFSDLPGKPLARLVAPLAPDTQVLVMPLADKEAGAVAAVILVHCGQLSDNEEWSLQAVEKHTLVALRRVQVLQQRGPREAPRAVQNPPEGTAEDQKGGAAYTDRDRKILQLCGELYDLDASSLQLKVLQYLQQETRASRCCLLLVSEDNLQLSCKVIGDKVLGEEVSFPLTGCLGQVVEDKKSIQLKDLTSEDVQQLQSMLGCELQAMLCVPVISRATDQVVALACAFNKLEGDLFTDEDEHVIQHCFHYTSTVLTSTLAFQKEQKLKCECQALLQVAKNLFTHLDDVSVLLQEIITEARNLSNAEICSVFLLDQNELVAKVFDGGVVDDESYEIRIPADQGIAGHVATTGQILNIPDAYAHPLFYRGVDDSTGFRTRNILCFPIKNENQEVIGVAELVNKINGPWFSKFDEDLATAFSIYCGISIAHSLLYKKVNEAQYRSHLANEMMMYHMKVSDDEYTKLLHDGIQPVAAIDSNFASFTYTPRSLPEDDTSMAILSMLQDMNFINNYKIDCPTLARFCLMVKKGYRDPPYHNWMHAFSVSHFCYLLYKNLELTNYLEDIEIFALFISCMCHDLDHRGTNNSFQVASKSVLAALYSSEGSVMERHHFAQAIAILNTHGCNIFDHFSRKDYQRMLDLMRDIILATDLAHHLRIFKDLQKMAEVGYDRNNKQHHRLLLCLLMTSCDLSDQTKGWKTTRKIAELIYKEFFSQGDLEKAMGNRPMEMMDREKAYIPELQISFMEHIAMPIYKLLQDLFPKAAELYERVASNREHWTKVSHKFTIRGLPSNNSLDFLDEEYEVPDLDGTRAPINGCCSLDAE

CN1CC(=O)N2C(Cc3c([nH]c4ccccc34)C2c2ccc3c(c2)OCO3)C1=O (stereo not drawn) [tadalafil, 6-benzo[1,3]dioxol-5-yl-2-methyl-2,3,6,7,12,12a-hexahydro-pyrazino[1′,2′:1,6]pyrido[3,4-b]indole-1,4-dione]
LTP, fEPSP slope as % of baseline [1, 8]: 232.45±21.92% | level of LTP as % of vehicle-treated WT slices [1, 8]: ~106% | basal synaptic responses without tetanus as % of vehicle-treated WT slices [1, 9]: ~98% | basal synaptic responses without tetanus, fEPSP % of baseline [1, 9]: 103.65±1.63% | effect on LTP impairment in words ([1]; slices from APP/PS1 (transgenic) mice, 10 min prior to tetanus): reverses LTP impairment | LTP, fEPSP slope as % of baseline [1, 10]: 209.49±13.89% | level of LTP as % of vehicle-treated WT littermates [1, 10]: ~96% | contextual freezing time (APP/PS1 mice [2]; 3 month-old APP/PS1, sildenafil 3 mg/Kg or tadalafil 1 mg/Kg i.p., 24 hrs after training): 18.76±3.89% | contextual freezing time as % of vehicle-treated APP/PS1 mice (APP/PS1 mice [2]; 3 month-old APP/PS1, tadalafil 1 mg/Kg i.p.): ~122% | contextual freezing as % of vehicle-treated WT mice (APP/PS1 mice [2]; [11]): ~85% | contextual freezing time (APP/PS1 mice [2]; [11]): 28.29±3.30% | effect on contextual fear memory in words (APP/PS1 mice [2]): does not modify contextual fear conditioning | effect on contextual fear memory in words (APP/PS1 mice [2]; listed as Tadalafil): did not improve associative learning | effect on spatial working memory (RAWM) in words (APP/PS1 mice [3]): does not improve spatial working memory | effect on spatial working memory (RAWM) in words (APP/PS1 mice [3]; listed as Tadalafil): did not improve | ability to cross the BBB in words [4]: unlikely to cross it; also recorded: does not cross it | ability to cross the BBB in words ([4]; listed as Tadalafil): does not cross it

COc1ccc(C2CNC(=O)C2)cc1OC1CCCC1 (stereo not drawn) [rolipram]
effect on Aβ in brains of APP/PS1 mice in words [5]: did not affect Aβ concentration; also recorded: did not affect Aβ load

COC(=O)c1c(-c2cc(OC)c(OC)c(OC)c2)c2ccc(OCc3ccccn3)cc2c(=O)n1-c1ccc(N)cc1.O=S(=O)(O)O [T1032]
IC50 (PDE5; read-out: IC50 against PDE5): < 1 nM | selectivity ratio for PDE1 (PDE1/PDE5) (PDE1): 1300 | selectivity ratio for PDE6 (PDE6/PDE5) (PDE6): 28 | PDE2/PDE5 (PDE2): > 10 000 | PDE3/PDE5 (PDE3): > 10 000 | PDE4/PDE5 (PDE4): 4700 | EC50 [6]: 7.9 nM

CCOC(=O)c1cc2c(cn1)[nH]c1ccccc12 [beta-CCE, Ethyl beta-carboline-3-carboxylate]
PDE5 inhibition in words (PDE5): weak, non-selective PDE5 inhibitor

Cc1cc(-c2ccccc2)nnc1NCCN1CCOCC1 [minaprine]
brain/blood ratio [7]: > 2
